The results in this text go back to US20050202093A1, “Prolonged suppression of electrical activity in excitable tissues” (priority 2002, published 2005).

The subject of one series is pilocarpine-treated rats. Put plainly: Focal pilocarpine-induced seizures after intrahippocampal pretreatment, behavior scored 0-6. The class given is in vivo, Sprague Dawley rats. The procedure: The method is similar to that described by Cavalheiro et al. (Cavalheiro E A, Czuzwar S J, Kleinrok S. Intracerebral cholinomimetics produce seizure-related brain damage in rats. Brit. J. Pharmacol. 1983; 79: 284P; incorporated herein by reference). Animals were anesthetized with pentobarbital (40 mg/kg) and an electrode-cannula guide (Plastic one, USA) was stereotactically implanted in the CA3 region of the dorsal hippocampus (lateral from midline 3.5 mm, posterior from bregma 3.8 mm, and 3.8 mm deep from skull; FIG. 35 in (Paxinos G, Watson C. The rat brain in stereotaxic coordinates, 4th edition. San Diego: Academic Press, 1998; incorporated herein by reference)). The electrode-cannula guide was fixed to skull using dental cement and skull screws. After surgery, a dummy cannula was placed into the guide cannula to prevent occlusion. One week later the rats received 30 μl of one anticonvulsant or control treatment (encapsulated or free) through the cannula using a microinfusion pump (Baxter, model AS40A) for 15 min at a rate of 0.12 ml/hr. Thirty minutes after completion of these treatments, 40 mM pilocarpine was infused for 50 min at a rate of 0.12 ml/hr. Subsequently, continuous EEGs were recorded from the electrode-cannulae, and the animals were videotaped for a minimum of two hours. […]

Series [1] deals with hippocampus of pilocarpine-treated rats. Put plainly: Hippocampal histology two weeks after seizure induction (thionin cell loss score, Timm stain score). The class given is in vivo, Sprague Dawley rats. To be noted: dosage 5 μg. The procedure:
Two weeks after induction of seizure, animals were sacrificed and prepared for routine histology and Timm histochemistry. Following deep anesthesia with sodium pentobarbital (100 mg/kg), rats were perfused transcardially with 300 ml sodium sulfide medium (2.295 g Na2S, 2.975 g NaH2PO4/H2O in 500 ml H2O) followed by 300 ml 4% paraformaldehyd were postfixed in 4% paraformaldehyde for 24 h and then placed in a 30% sucrose solution until they sank to the bottom of the vial. Coronal sections through the entire extent of the hippocampus were cut at 40 μm on a freezing microtome and sections were stored in phosphate buffered saline. Every fourth section was stained for mossy fibers using Timm stain as follows. The sections were developed in the dark for 40-45 min in a solution of 50% Arabic gum (120 ml), 10 ml of citric acid (51 g/100 ml H2O), 10 ml sodium citrate (47 g/100 ml H2O), 3.47 g hydroquinone in 60ml, and 212.25 mg AgNO3. Following washing, the slides were dehydrated in alcohol, cleared in xylene, and mounted on slides with Permount (Fisher Scientific, Pittsburgh, Pa.). Timm staining was analyzed using a scoring system (0 to 5) for terminal sprouting in the CA3 and supragranular regions (Holmes G L, Gaiarsa J L, Chevassus-Au-Louis N, Ben-Ari Y. Consequences of neonatal seizures in the rat: morphological and behavioral effect. Ann. Neurol. 1998; 44: 845-857; Holmes G L, Sarkisian M, Ben-Ari Y, Chevassus-Au-Louis N. Mossy fiber sprouting following recurrent seizures during early development in rats. J. Comp. Neurol. 1999; 404: 537-553; each of which is incorporated herein by reference). […] Slides were analyzed for cell loss in the CA3, CA1 and hilar region using a semi-quantitative visual scoring system (0 to 5) (Mikati M A, Holmes G L, Chronopoulos A, et al. Phenobarbital modifies seizure-related brain injury in the developing brain. Ann. Neurol. 1994; 36: 425-433; incorporated herein by reference). Cell loss was assessed both ipsilateral and contralateral to the injection site. […]

For `NCc1cc(=O)[nH]o1` [free muscimol, Muscimol], the “seizure activity as measured by behavior score, versus normal saline” value in the series on pilocarpine-treated rats (5 μg intrahippocampal prior to pilocarpine, 120 minute time course, n=4) is reported as “reduces seizure activity”. Further, in the series on pilocarpine-treated rats (unencapsulated comparison groups to the 10 μg and 20 μg particle groups), the mortality entry is on record as “high mortality”. Moreover, in series [1] (n=4, mean ± SD), the “Timm scores CA3 region” value is on record as 1.48 ± 0.63 and the “Timm scores Supragranular” value is given as 1.75 ± 0.28. This compound also registered a Total cell loss in series [1] (n=4, thionin staining, mean ± SD) of 6.27 ± 0.57.
